Consider ten compounds from patent US20100061982A1, “3-SUBSTITUTED-1H-INDOLE, 3-SUBSTITUTED-1H-PYRROLO[2,3-B]PYRIDINE AND 3-SUBSTITUTED-1H-PYRROLO[3,2-B]PYRIDINE COMPOUNDS, THEIR USE AS MTOR KINASE AND PI3 KINASE INHIBITORS, AND THEIR SYNTHESES” (priority 2008, published 2010).

Series [1] can be described thus: Microsome Stability (15 min), rat. The conditions noted are these: microsomes, Phase I (NADPH), read-out: Microsome Stability (15 min) T ½ Phase I rat. It counts as in vitro ADME.
Series [2] can be described thus: PAMPA permeability pH 7.4.
Series [3] in a line: Buffer Stability (37° C.).
A short description of another series: Solubility pH 7.4. As to conditions: pH 7.4, aqueous buffer.
The nature of series [4]: Plasma Stability (37° C.), rat.
The next series has as its target PI3K alpha (Homo sapiens, UniProt P42336). The series is described as follows: PI3K-alpha Fluorescence Polarization Assay. The class given is biochemical. (In general: Polarisation of emitted light reports the rotation of a fluorescent probe.)
Series [5] in a line: Microsome Stability (15 min), human. It counts as in vitro ADME. As to conditions: microsomes, Phase I (NADPH), read-out: Microsome Stability (15 min) T ½ Phase I human.
Series [6] in a line: Microsome Stability (15 min), nude mouse. The conditions noted are these: microsomes, Phase I (NADPH), read-out: Microsome Stability (15 min) T ½ Phase I nude mouse. The class given is in vitro ADME.

≈ marks a conversion by molar mass, not a printed value. Like-named read-outs stand apart in the source and are kept apart here.

Chain of PI3K alpha (P42336 whole entry, species assumed): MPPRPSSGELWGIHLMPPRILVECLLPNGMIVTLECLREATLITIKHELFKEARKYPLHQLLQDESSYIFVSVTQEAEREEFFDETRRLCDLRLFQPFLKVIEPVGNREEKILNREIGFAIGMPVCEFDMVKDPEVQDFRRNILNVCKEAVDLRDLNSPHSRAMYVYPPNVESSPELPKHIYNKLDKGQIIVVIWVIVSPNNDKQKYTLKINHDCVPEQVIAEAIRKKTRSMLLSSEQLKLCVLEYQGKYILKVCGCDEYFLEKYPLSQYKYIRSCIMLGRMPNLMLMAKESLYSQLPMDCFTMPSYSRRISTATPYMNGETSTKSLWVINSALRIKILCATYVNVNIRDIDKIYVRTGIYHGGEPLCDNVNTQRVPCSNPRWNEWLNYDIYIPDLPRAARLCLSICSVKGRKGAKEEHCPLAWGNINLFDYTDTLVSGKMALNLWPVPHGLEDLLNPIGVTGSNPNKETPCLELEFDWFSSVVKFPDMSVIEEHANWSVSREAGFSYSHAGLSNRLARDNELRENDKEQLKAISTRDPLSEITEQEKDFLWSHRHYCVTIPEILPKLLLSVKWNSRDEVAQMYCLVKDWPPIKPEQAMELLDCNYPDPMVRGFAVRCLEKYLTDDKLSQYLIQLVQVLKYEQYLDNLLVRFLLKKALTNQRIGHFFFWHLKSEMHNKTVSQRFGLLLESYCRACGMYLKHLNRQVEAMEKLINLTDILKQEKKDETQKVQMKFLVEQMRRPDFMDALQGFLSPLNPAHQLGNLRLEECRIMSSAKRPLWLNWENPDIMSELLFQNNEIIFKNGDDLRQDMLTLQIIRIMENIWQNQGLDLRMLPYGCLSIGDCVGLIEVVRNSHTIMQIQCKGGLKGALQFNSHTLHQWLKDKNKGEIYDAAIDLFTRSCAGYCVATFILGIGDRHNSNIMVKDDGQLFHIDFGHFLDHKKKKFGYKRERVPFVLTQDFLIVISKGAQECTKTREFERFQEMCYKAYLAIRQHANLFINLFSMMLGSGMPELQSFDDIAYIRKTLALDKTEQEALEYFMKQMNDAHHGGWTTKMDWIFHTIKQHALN
Chain of PI3K alpha (P27986 whole entry partner, species assumed): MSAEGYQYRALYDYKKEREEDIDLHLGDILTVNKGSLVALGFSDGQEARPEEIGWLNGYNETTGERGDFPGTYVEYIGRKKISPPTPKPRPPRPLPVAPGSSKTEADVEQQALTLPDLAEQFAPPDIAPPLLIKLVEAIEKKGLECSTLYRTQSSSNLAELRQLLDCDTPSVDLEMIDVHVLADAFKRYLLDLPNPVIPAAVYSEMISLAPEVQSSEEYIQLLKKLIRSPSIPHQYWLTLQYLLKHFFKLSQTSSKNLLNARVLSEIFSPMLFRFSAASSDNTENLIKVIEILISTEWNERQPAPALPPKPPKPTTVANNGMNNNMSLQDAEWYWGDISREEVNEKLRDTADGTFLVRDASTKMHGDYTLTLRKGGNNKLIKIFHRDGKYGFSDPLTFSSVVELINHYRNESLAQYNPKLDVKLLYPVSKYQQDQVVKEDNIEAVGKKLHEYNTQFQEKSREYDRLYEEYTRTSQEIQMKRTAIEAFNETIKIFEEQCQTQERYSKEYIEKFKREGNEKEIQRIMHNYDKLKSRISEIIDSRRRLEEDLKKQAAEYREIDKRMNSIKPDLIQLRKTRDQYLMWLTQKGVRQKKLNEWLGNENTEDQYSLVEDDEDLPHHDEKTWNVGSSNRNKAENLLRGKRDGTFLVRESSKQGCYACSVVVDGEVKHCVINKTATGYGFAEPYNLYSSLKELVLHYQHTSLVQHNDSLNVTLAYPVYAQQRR

For `COc1ccc2[nH]c(-c3ccccc3)c(/C=C3\Oc4cc(OC(=O)Oc5ccccc5)cc(OC(=O)Oc5ccccc5)c4C3=O)c2c1` [Example 23, (2Z)-2-[(5-methoxy-2-phenyl-1H-indol-3-yl)methylene]-3-oxo-2,3-dihydro-1-benzofuran-4,6-diyl diphenyl biscarbonate], in series [1], the half-life turned out to be 8 min. Also, the “PAMPA Pe” value in series [2] is 0 10e−6 cm/s. In series [3], the “Buffer Stability (37° C.) % Remaining (at 16-23 hours) SGF” value is 0%, the “Buffer Stability (37° C.) % Remaining (at 16-23 hours) SIF” value stood at 0%, the “Buffer Stability (37° C.) % Remaining (at 16-23 hours) pH 1” value is 0% and the “Buffer Stability (37° C.) % Remaining (at 16-23 hours) pH 4.5” value is reported as 0%. Further, in series [3], the “Buffer Stability (37° C.) % Remaining (at 16-23 hours) pH 6.6” value is 0%, the “Buffer Stability (37° C.) % Remaining (at 16-23 hours) pH 7.4” value is recorded as 0% and the “Buffer Stability (37° C.) % Remaining (at 16-23 hours) pH 9” value is 0%. Moreover, the concentration in solution in the series “Solubility pH 7.4” (solubility) came to 1 µg/mL (≈ 1.56 µM). Also, in series [4], the “Plasma Stability (37° C.) % Remaining (3-3.5 hours) rat” value (“Plasma Stability (37° C.) % Remaining” for short) is on record as 0%. Besides, the IC50 – broadly, the concentration that inhibits the measured activity by half – at PI3K alpha (read-out: PI3K alpha Mean IC50) was found to be 10 nM. In series [5], the half-life came out at 6 min.
Take `CCOC(=O)CNC(=O)Oc1cc(OC(=O)NCC(=O)OCC)c2c(c1)O/C(=C\c1cn(CCCN(C)C)c3ccc(OC)cc13)C2=O` [Example 35, diethyl 2,2′-[[(2Z)-2-({1-[3-(dimethylamino)propyl]-5-methoxy-1H-indol-3-yl}methylene)-3-oxo-2,3-dihydro-1-benzofuran-4,6-diyl]bis(oxycarbonylimino)]diacetate]: the “PAMPA Pe” value in series [2] is 0 10e−6 cm/s. Moreover, the solubility (in general, the dissolved amount per volume that the medium holds) in “Solubility pH 7.4” was determined as 51 µg/mL (≈ 76.5 µM). This compound also had a 50% inhibitory concentration (IC50) on PI3K alpha of 28 nM.
With `CCOP(=O)(OCC)Oc1cc2c(c(OP(=O)(OCC)OCC)c1)C(=O)/C(=C/c1cn(CCCN(C)C)c3ccc(OC)cc13)O2` [Example 33, (2Z)-2-({1-[3-(dimethylamino)propyl]-5-methoxy-1H-indol-3-yl}methylene)-3-oxo-2,3-dihydro-1-benzofuran-4,6-diyl tetraethyl bis(phosphate)], the half-life in series [1] amounted to 12 min; in series [6] it was 15 min; in series [5], 4 min. Also, the “PAMPA Pe” value in series [2] is reported as 0.25 10e−6 cm/s. Besides, the solubility in “Solubility pH 7.4” was 59 µg/mL. On PI3K alpha, this compound yielded a 50% inhibitory concentration (IC50) above 10000 nM.
`COc1ccc2c(c1)c(/C=C1\Oc3cc(O)ccc3C1=O)cn2CCCN(C)C` [(2Z)-2-({1-[3-(dimethylamino)propyl]-5-methoxy-1H-indol-3-yl}methylene)-6-hydroxy-1-benzofuran-3(2H)-one]: the half-life in series [1] was 12 min. In series [2], the “PAMPA Pe” value is given as 0 10e−6 cm/s. The compound further yielded a solubility in the series “Solubility pH 7.4” of 53 µg/mL (≈ 135 µM).
For the compound `COc1ccc2[nH]c(-c3ccccc3)c(/C=C3\Oc4cc(OC(=O)Oc5ccccc5)ccc4C3=O)c2c1` [Example 19, (2Z)-2-[(5-methoxy-2-phenyl-1H-indol-3-yl)methylene]-3-oxo-2,3-dihydro-1-benzofuran-6-yl phenyl carbonate], in series [1], the half-life was above 30 min. For the same compound, the “PAMPA Pe” value in series [2] is reported as 0 10e−6 cm/s. For the same compound, in series [3], the “Buffer Stability (37° C.) % Remaining (at 16-23 hours) SGF” value was determined as 106%, the “Buffer Stability (37° C.) % Remaining (at 16-23 hours) SIF” value was 35%, the “Buffer Stability (37° C.) % Remaining (at 16-23 hours) pH 1” value was found to be 104% and the “Buffer Stability (37° C.) % Remaining (at 16-23 hours) pH 4.5” value is 74%. For the same compound, in series [3], the “Buffer Stability (37° C.) % Remaining (at 16-23 hours) pH 6.6” value turned out to be 60%, the “Buffer Stability (37° C.) % Remaining (at 16-23 hours) pH 7.4” value is listed as 54% and the “Buffer Stability (37° C.) % Remaining (at 16-23 hours) pH 9” value was determined as 0%. In series [4], the “Plasma Stability (37° C.) % Remaining” value was found to be 10%. Also, the IC50 on PI3K alpha (read-out: PI3K alpha Mean IC50) was found to be 181 nM. The half-life in series [6] (nude, mouse) is above 30 min. The half-life in series [5] came to 28 min.
For `COc1ccc2c(c1)c(/C=C1\Oc3cc(OC(=O)N(c4ccccc4)c4ccccc4)cc(OC(=O)N(c4ccccc4)c4ccccc4)c3C1=O)c(C)n2CCN1CCN(C)CC1` [Example 29, (2Z)-2-({5-methoxy-2-methyl-1-[2-(4-methylpiperazin-1-yl)ethyl]-1H-indol-3-yl}methylene)-3-oxo-2,3-dihydro-1-benzofuran-4,6-diyl bis(diphenylcarbamate)], in series [2], the “PAMPA Pe” value was 0 10e−6 cm/s. This compound also gave a solubility in the series “Solubility pH 7.4” of 5 µg/mL (≈ 5.85 µM). Further, the IC50 on PI3K alpha came out at 1000 nM.
For `COc1ccc2c(c1)c(/C=C1\Oc3cc(OC(=O)C(C)(C)C)cc(OC(=O)C(C)(C)C)c3C1=O)cn2CCCN(C)C` [Example 14, (2Z)-2-({1-[3-(dimethylamino)propyl]-5-methoxy-1H-indol-3-yl}methylene)-3-oxo-2,3-dihydro-1-benzofuran-4,6-diyl bis(2,2-dimethylpropanoate)], the half-life in series [1] came to 3 min. Moreover, in series [2], the “PAMPA Pe” value is given as 0 10e−6 cm/s. Besides, in series [3], the “Buffer Stability (37° C.) % Remaining (at 16-23 hours) SGF” value was 94%, the “Buffer Stability (37° C.) % Remaining (at 16-23 hours) SIF” value is reported as 0%, the “Buffer Stability (37° C.) % Remaining (at 16-23 hours) pH 1” value amounted to 89% and the “Buffer Stability (37° C.) % Remaining (at 16-23 hours) pH 4.5” value was 98%. Moreover, in series [3], the “Buffer Stability (37° C.) % Remaining (at 16-23 hours) pH 6.6” value is given as 79%, the “Buffer Stability (37° C.) % Remaining (at 16-23 hours) pH 7.4” value is given as 20% and the “Buffer Stability (37° C.) % Remaining (at 16-23 hours) pH 9” value came out at 0%. In “Solubility pH 7.4”, this compound had a solubility of 1 µg/mL (≈ 1.73 µM). In addition, in series [6] (nude, mouse), the half-life turned out to be 2 min. For the same compound, the half-life in series [5] was determined as 21 min.
With `COc1ccc2c(c1)c(/C=C1\Oc3cc(OC(C)=O)cc(OC(C)=O)c3C1=O)cn2CCCN(C)C` [Example 15, (2Z)-2-({1-[3-(dimethylamino)propyl]-5-methoxy-1H-indol-3-yl}methylene)-3-oxo-2,3-dihydro-1-benzofuran-4,6-diyl diacetate], the “PAMPA Pe” value in series [2] was 0.24 10e−6 cm/s. The solubility in “Solubility pH 7.4” is 49 µg/mL. The IC50 at PI3K alpha (read-out: PI3K alpha Mean IC50) is 82 nM.
As for `COC(=O)Oc1cc(OC(=O)OC)c2c(c1)O/C(=C\c1cn(CCCN(C)C)c3ccc(OC)cc13)C2=O` [Example 13, (2Z)-2-({1-[3-(dimethylamino)propyl]-5-methoxy-1H-indol-3-yl}methylene)-3-oxo-2,3-dihydro-1-benzofuran-4,6-diyl dimethyl biscarbonate], in series [2], the “PAMPA Pe” value is listed as 0.19 10e−6 cm/s. In “Solubility pH 7.4”, this compound registered a solubility of 43 µg/mL (≈ 82 µM). In addition, the IC50 at PI3K alpha (read-out: PI3K alpha Mean IC50) worked out at 313 nM.
Take `COc1ccc2[nH]c(-c3ccccc3)c(/C=C3\Oc4cc(OC(=O)c5ccccc5)ccc4C3=O)c2c1` [Example 17, (2Z)-2-[(5-methoxy-2-phenyl-1H-indol-3-yl)methylene]-3-oxo-2,3-dihydro-1-benzofuran-6-yl benzoate]: the half-life in series [1] came to 5 min. The “PAMPA Pe” value in series [2] is on record as 0 10e−6 cm/s. In addition, in series [3], the “Buffer Stability (37° C.) % Remaining (at 16-23 hours) SGF” value is given as 96%, the “Buffer Stability (37° C.) % Remaining (at 16-23 hours) SIF” value is on record as 0%, the “Buffer Stability (37° C.) % Remaining (at 16-23 hours) pH 1” value was 95% and the “Buffer Stability (37° C.) % Remaining (at 16-23 hours) pH 4.5” value is on record as 93%. In series [3], the “Buffer Stability (37° C.) % Remaining (at 16-23 hours) pH 6.6” value amounted to 95%, the “Buffer Stability (37° C.) % Remaining (at 16-23 hours) pH 7.4” value is given as 32% and the “Buffer Stability (37° C.) % Remaining (at 16-23 hours) pH 9” value amounted to 0%. Also, the solubility in “Solubility pH 7.4” was determined as 4 µg/mL (≈ 8.2 µM). The “Plasma Stability (37° C.) % Remaining” value in series [4] came to 2%. The concentration for half-maximal inhibition (IC50) on PI3K alpha (read-out: PI3K alpha Mean IC50) was 157 nM. In addition, the half-life in series [6] (nude, mouse) is above 30 min. Moreover, the half-life in series [5] stood at 4 min.
